Here are results for 25 compounds from patent US9994587B2, “HIV protease inhibitors” (priority 2014, dated 2018).

The target in this assay is T1, wildtype HIV-1 protease (Human immunodeficiency virus type 1 group M subtype B, UniProt P04585).
T1 construct: preincubated with the HIV-1 protease (wild type) enzyme in assay buffer; made in house; host or cells: Escherichia coli
Briefly: Assay for inhibition of microbial expressed HIV protease (Pepcleav). The class given is biochemical. The conditions noted are these: wild type HIV-1 protease 20 pM, peptide substrate 400 micromolar, pH 5.5; mean of at least two independent experiments. Summed up:
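E. coli-expressed enzyme preincubated with inhibitor 30 min at room temperature in 50 mM sodium acetate pH 5.5, 100 mM NaCl, 0.1% BSA, then 400 micromolar peptide substrate added with 20 picomolar protease (final), 1 h at 30° C. Product quantified by LC-MS/MS peak area after formic acid/indinavir quench.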
What is called IC50 is the concentration at which inhibition is half-maximal. Take `COC(=O)N[C@H](C(=O)Nc1ccccc1CC[C@@H]1CNC[C@@H](COCc2ccc(Cl)cc2)O1)C(c1ccccc1)c1ccccc1` [Example 59, methyl N-[(1S)-1-benzhydryl-2-[[2-[2-[(2R,6S)-6-[(4-chlorophenyl)methoxymethyl]morpholin-2-yl]ethyl]phenyl]amino]-2-oxo-ethyl]carbamate]: half-maximal inhibition (IC50) required 62 nM.
The same measure for `COC(=O)N[C@H](C(=O)Nc1cccc(F)c1CC[C@@H]1CNC[C@@H](COc2ccc(C#N)cc2)O1)C(c1ccccc1)c1ccccc1` [Example 71, N-[2-(2-{(2R,6S)-6-[(4-cyanophenoxy)methyl]morpholin-2-yl}ethyl)-3-fluorophenyl]-Nα-(methoxycarbonyl)-β-phenyl-L-phenylalaninamide]: 7.4 nM; for `N[C@H](C(=O)Nc1c(CC[C@@H]2CNC[C@@H](CSc3ccc(Cl)cc3)O2)cc[nH]c1=O)C(c1ccccc1)c1ccccc1` [Example 88, N-(4-{2-[(2R,6S)-6-{[(4-chlorophenyl)sulfanyl]methyl}morpholin-2-yl]ethyl}-2-oxo-1,2-dihydropyridin-3-yl)-β-phenyl-L-phenylalaninamide]: 0.04 nM; for `COC(=O)N[C@H](C(=O)Nc1ccccc1CC[C@@H]1CNC[C@@H](CSc2ccc(Cl)cc2)O1)[C@H](c1ccccc1)c1ccncc1` [Example 69, (βR)-N-(2-{2-[(2R,6S)-6-{[(4-chlorophenyl)sulfanyl]methyl}morpholin-2-yl]ethyl}phenyl)-Nα-(methoxycarbonyl)-β-pyridin-4-yl-L-phenylalaninamide]: 0.3 nM.
Next, `COC(=O)N[C@H](C(=O)Nc1ccccc1CC[C@@H]1CNC[C@@H](CSc2cccc(C#N)c2)O1)C(c1ccccc1)c1ccccc1` [Example 24, methyl N-[(1S)-1-benzhydryl-2-[[2-[2-[(2R,6S)-6-[(3-cyanophenyl)sulfanylmethyl]morpholin-2-yl]ethyl]phenyl]amino]-2-oxo-ethyl]carbamate]: 2.1 nM; `COC(=O)N[C@H](C(=O)Nc1ccccc1CC[C@@H]1CNC[C@@H](COc2cccc(F)c2)O1)C(c1ccccc1)c1ccccc1` [Example 47, N-[2-(2-{(2R,6S)-6-[(3-fluorophenoxy)methyl]morpholin-2-yl}ethyl)phenyl]-Nα-(methoxycarbonyl)-β-phenyl-L-phenylalaninamide]: 12 nM.
The compound `COC(=O)N[C@H](C(=O)Nc1ccccc1C[C@H]1CNC[C@@H](COc2ccc(C#N)cc2)O1)C(c1ccccc1)c1ccccc1` [Example 117, N-[2-({(2S,6S)-6-[(4-cyanophenoxy)methyl]morpholin-2-yl}methyl)phenyl]-Nα-(methoxycarbonyl)-β-phenyl-L-phenylalaninamide] displayed an IC50 of 180 nM.
Next, `COC(=O)N[C@H](C(=O)Nc1ccccc1CC[C@@H]1CNC[C@@H](CSc2cccc3ncccc23)O1)C(c1ccccc1)c1ccccc1` [Example 42, methyl [(2S)-1-oxo-3,3-diphenyl-1-{[2-(2-{(2R,6S)-6-[(quinolin-5-ylsulfanyl)methyl]morpholin-2-yl}ethyl)phenyl]amino}propan-2-yl]carbamate]: 0.94 nM.
Next, `COC(=O)N[C@H](C(=O)Nc1ccccc1CC[C@@H]1CNC[C@@H](c2nc3cc(C)c(C)cc3[nH]2)O1)C(c1ccccc1)c1ccccc1` [Example 112, N-(2-{2-[(2R,6S)-6-(5,6-dimethyl-1H-benzimidazol-2-yl)morpholin-2-yl]ethyl}phenyl)-Nα-(methoxycarbonyl)-β-phenyl-L-phenylalaninamide]: 850 nM; `COC(=O)N[C@H](C(=O)Nc1ccccc1CC[C@@H]1CNC[C@@H](CCOc2ccc(C#N)cc2)O1)C(c1ccccc1)c1ccccc1` [Example 64, N-[2-(2-{(2R,6R)-6-[2-(4-cyanophenoxy)ethyl]morpholin-2-yl}ethyl)phenyl]-Nα-(methoxycarbonyl)-β-phenyl-L-phenylalaninamide]: 28 nM; `COC(=O)N[C@H](C(=O)Nc1ccccc1CCC1CNC[C@@H](COc2ccccc2-c2cc[nH]n2)O1)C(c1ccccc1)c1ccccc1` (stereo in doubt) [Example 110, Nα-(methoxycarbonyl)-β-phenyl-N-(2-{2-[(2R,6S)-6-{[2-(1H-pyrazol-3-yl)phenoxy]methyl}morpholin-2-yl]ethyl}phenyl)-L-phenylalaninamide]: 250 nM.
Next, `COC(=O)N[C@H](C(=O)Nc1ccccc1CC[C@@H]1CNC[C@@H](COc2ccc3cn[nH]c3c2)O1)C(c1ccccc1)c1ccccc1` [Example 45, N-[2-(2-{(2R,6S)-6-[(1H-indazol-6-yloxy)methyl]morpholin-2-yl}ethyl)phenyl]-Nα-(methoxycarbonyl)-β-phenyl-L-phenylalaninamide]: 11 nM; `COC(=O)N[C@H](C(=O)Nc1ccccc1CC[C@@H]1CNC[C@@H](CSc2ccc(Cl)cc2)O1)[C@@H](c1ccccc1)c1ccnc2ccccc12` [Example 68, methyl[(2S,3S)-1-[(2-{2-[(2R,6S)-6-{[(4-chlorophenyl)sulfanyl]methyl}morpholin-2-yl]ethyl}phenyl)amino]-1-oxo-3-phenyl-3-(quinolin-4-yl)propan-2-yl]carbamate]: 0.03 nM.
Turning to `COC(=O)N[C@H](C(=O)Nc1ccccc1CC[C@@H]1CNC[C@@H](CSc2cccc(Br)c2)O1)C(c1ccccc1)c1ccccc1` [Example 20, methyl N-[(1S)-1-benzhydryl-2-[[2-[2-[(2R,6S)-6-[(3-bromophenyl)sulfanylmethyl]morpholin-2-yl]ethyl]phenyl]amino]-2-oxo-ethyl]carbamate], the IC50 is 2.9 nM.
As to `COC(=O)N[C@H](C(=O)Nc1ccccc1CC[C@@H]1CNC[C@@H](COc2ccc3cc[nH]c3c2)O1)C(c1ccccc1)c1ccccc1` [Example 39, N-[2-(2-{(2R,6S)-6-[(1H-indol-6-yloxy)methyl]morpholin-2-yl}ethyl)phenyl]-Na-(methoxycarbonyl)-b-phenyl-L-phenylalaninamide], the midpoint of inhibition, the IC50, lay at 100 nM.
Regarding `COC(=O)N[C@H](C(=O)Nc1ccccc1CCC1CNC[C@@H](CS(=O)(=O)c2ccc3ccccc3c2)O1)C(c1ccccc1)c1ccccc1` (stereo partly drawn) [Example 4, methyl N-[(1S)-1-benzhydryl-2-[[2-[2-[(6S)-6-(2-naphthylsulfonylmethyl)morpholin-2-yl]ethyl]phenyl]amino]-2-oxo-ethyl]carbamate], half-maximal inhibition (IC50) was put at 62 nM.
`COC(=O)N[C@H](C(=O)Nc1n[nH]cc1CC[C@@H]1CNC[C@@H](COc2ccc(S(C)(=O)=O)cc2)O1)C(c1ccccc1)c1ccccc1` [Example 115, Nα-(methoxycarbonyl)-N-(4-{2-[(2R,6S)-6-{[4-(methylsulfonyl)phenoxy]methyl}morpholin-2-yl]ethyl}-1H-pyrazol-3-yl)-β-phenyl-L-phenylalaninamide] returned an IC50 of 370 nM.
Next, `COC(=O)N[C@H](C(=O)Nc1ccccc1CC[C@@H]1CNC[C@@H](COc2ccc(-c3ccccc3)cc2)O1)C(c1ccccc1)c1ccccc1` [Example 11, methyl N-[(1S)-1-benzhydryl-2-oxo-2-[[2-[2-[(2R,6S)-6-[(4-phenylphenoxy)methyl]morpholin-2-yl]ethyl]phenyl]amino]ethyl] carbamate]: 6.6 nM; `COC(=O)N[C@H](C(=O)Nc1ccccc1CC[C@@H]1CNC[C@@H](COc2cccc3[nH]ccc23)O1)C(c1ccccc1)c1ccccc1` [Example 30, methyl N-[(1S)-1-benzhydryl-2-[[2-[2-[(2R,6S)-6-(1H-indol-4-yloxymethyl)morpholin-2-yl]ethyl]phenyl]amino]-2-oxo-ethyl]carbamate]: 130 nM; `COC(=O)N[C@H](C(=O)Nc1cc(F)ccc1CC[C@@H]1CNC[C@@H](COc2ccc(C#N)cc2)O1)C(c1ccccc1)c1ccccc1` [Example 72, N-[2-(2-{(2R,6S)-6-[(4-cyanophenoxy)methyl]morpholin-2-yl}ethyl)-5-fluorophenyl]-Nα-(methoxycarbonyl)-β-phenyl-L-phenylalaninamide]: 23 nM.
Next, `COC(=O)N[C@H](C(=O)NCCCC1CNC[C@@H](CSc2ccc(Cl)cc2C)O1)C(c1ccccc1)c1ccccc1` (stereo partly drawn) [Example 3, methyl N-[(1S)-1-benzhydryl-2-[3-[(6S)-6-[(4-chloro-2-methyl-phenyl)sulfanylmethyl]morpholin-2-yl]propylamino]-2-oxo-ethyl]carbamate]: 420 nM.
With `COC(=O)N[C@H](C(=O)Nc1c(F)cccc1CC[C@@H]1CNC[C@@H](COc2ccc(C#N)cc2)O1)C(c1ccccc1)c1ccccc1` [Example 76, N-[2-(2-{(2R,6S)-6-[(4-cyanophenoxy)methyl]morpholin-2-yl}ethyl)-6-fluorophenyl]-Nα-(methoxycarbonyl)-β-phenyl-L-phenylalaninamide], inhibition was half-maximal at 9.1 nM (IC50).
The same measure for `COC(=O)N[C@H](C(=O)Nn1c(CC[C@@H]2CNC[C@@H](COc3ccc(C#N)cc3)O2)cccc1=O)C(c1ccccc1)c1ccccc1` [Example 90, N-[6-(2-{(2R,6S)-6-[(4-cyanophenoxy)methyl]morpholin-2-yl}ethyl)-2-oxopyridin-1 (2H)-yl]-Nα-(methoxycarbonyl)-β-phenyl-L-phenylalaninamide]: 53.3 nM.
Next, `COC(=O)N[C@H](C(=O)Nc1ccccc1CC[C@@H]1CNC[C@@H](COc2ccc(-n3cccn3)cc2)O1)C(c1ccccc1)c1ccccc1` [Example 43, N-α-(methoxycarbonyl)-β-phenyl-N-(2-{2-[(2R,6S)-6-{[4-(1H-pyrazol-1-yl)phenoxy]methyl}morpholin-2-yl]ethyl}phenyl)-L-phenylalaninamide]: 4.7 nM; `COC(=O)N[C@H](C(=O)Nc1ccccc1CC[C@@H]1CNC[C@@H](COc2cccc3cn[nH]c23)O1)C(c1ccccc1)c1ccccc1` [Example 41, N-[2-(2-{(2R,6S)-6-[(1H-indazol-7-yloxy)methyl]morpholin-2-yl}ethyl)phenyl]-Na-(methoxycarbonyl)-b-phenyl-L-phenylalaninamide]: 26 nM.
